Measured values published in patent US7968526B2, “Antisense oligonucleotides directed to ribonucleotide reductase R2 and uses thereof in the treatment of cancer” (Lorus Therapeutics Inc., priority 2003, dated 2011).

Assays:
[1] = tested on: BxPC-3 human pancreatic carcinoma cells; assay: BxPC-3 gemcitabine resistant pancreatic carcinoma xenograft in CD-1 nude mice; assay type: in vivo, human cells in mice; details: Gemcitabine 100 mg/kg i.v. every three days
Experimental: BxPC-3 is a gemcitabine resistant call line. […] Gemcitabine was administered intravenously every three days at a dose of 100 mg/kg. Antitumour activities were estimated by the inhibition of tumour volume, which was measured with caliper. Each point represents mean tumour volume calculated from 10 animals per experimental group. […] Hela S3 is a hydroxyurea resistant cell line. […] Hydroxyurea was administered intraperitoneally every day at a dose of 250 mg/kg for 10 days. Cisplatin was administered intravenously once a week for three weeks at a dose of 4 mg/kg. Antitumour activities were estimated by the inhibition of tumour volume, which was measured with caliper. Each point represents mean tumour volume calculated from 10 animals per experimental group. […] Cisplatin was administered intravenously once a week for three weeks at a dose of 4 mg/kg. Taxol was administered intravenously once a week for three weeks at a dose of 10 mg/kg. Antitumour activities were estimated by the inhibition of tumour volume, which was measured with caliper. Each point represents mean tumour volume calculated from 10 animals per experimental group. […] Taxol was administered i.p. once a week at a dose of 10 mg/kg. Antitumour activities were estimated by the inhibition of tumour volume (FIG. 12A), which was measured with calipers. Each point represents mean tumour volume calculated from 10 animals per experimental group. Animals were sacrificed and tumour weights taken at the end of the study (FIG. 12C). […] Cisplatin was administered intravenously once a week for four weeks at a dose of 4 mg/kg. Taxol was administered intravenously once a week for four weeks at a dose of 20 mg/kg. Antitumour activities were estimated by the inhibition of tumour volume, which was measured with caliper. Each point represents mean tumour volume calculated from 9-10 animals per experimental group. […] Cisplatin was administered intravenously once a week for four weeks at a dose of 4 mg/kg. Antitumour activities were estimated by the inhibition of tumour volume, which was measured with caliper. Each point represents mean tumour volume calculated from 10 animals per experimental group. At the end of the study the animals were sacrificed and tumours weighed. […] Taxol was administered i.p. once a week at a dose of 10 mg/kg. Anti-tumour activity was estimated by the inhibition of tumour volume, which was measured with caliper. Each point represents mean tumour volume calculated from 10 animals per experimental group. […] Antitumour activities were estimated by the inhibition of tumour volume, which was measured with caliper. Each point represents mean tumour volume calculated from 10 animals per experimental group. Tumour weights were measured after animals were sacrificed at the end of the treatment. […]

[2] = Tissue distribution in the monkey (CE method); assay type: in vivo
Experimental: The toxicokinetics and tissue distribution of SEQ ID NO:1 (and related oligonucleotide metabolites obtained from exonuclease-mediated chain shortening) were determined in rats and monkeys. In addition to investigating the pharmacokinetics and tissue distribution of SEQ ID NO:1, the purpose of the studies was to correlate adverse effects in the animal studies to the concentrations of SEQ ID NO:1 (and metabolites) in tissue and blood. A capillary electrophoresis (CE) method was used to measure the concentrations of SEQ ID NO:1 (and metabolites) in plasma and tissues.
The concentrations of SEQ ID NO:1 (and related n+1, n−1 to n−15 oligonucleotide metabolites) in the following rat and monkey tissues were measured by a validated CE method (Southwest Bio-Labs, Inc.): kidney, liver, spleen, heart, lung, bone marrow (rat), lymph nodes (monkey) and brain tissues. The tissue samples were collected from the designated animals as described in the 21-day toxicity studies: rats, administered bolus intravenous injections of SEQ ID NO:1 every other day at 2, 10, or 50 mg/kg; and monkeys administered SEQ ID NO:1 by continuous intravenous infusion at 2, 10, or 50 mg/kg/day.

[3] = 2 mg/kg/day continuous i.v. infusion, Necropsy Day 22
[4] = 10 mg/kg/day continuous i.v. infusion, Necropsy Day 22
[5] = 50 mg/kg/day continuous i.v. infusion, Necropsy Day 22
[6] = 50 mg/kg/day continuous i.v. infusion, Necropsy Day 43

Substance: 5′-GGCTAAATCGCTCCACCAAG-3′ (all phosphorothioate, sugars by position and methylation of C not given here) [SEQ ID NO: 1, fully phosphorothioated antisense oligonucleotide that hybridizes to the coding region of R2 mRNA]
- Tumour weight as % of saline control ([1]; BxPC-3 (pancreatic), Gemcitabine resistant, CD-1, SEQ ID NO:1 10 mg/kg i.v. every other day 17 times): 5.8%
- Antitumour effect (tumour volume, FIG. 9) ([1]; BxPC-3 gemcitabine resistant, CD-1 nude mice, SEQ ID NO:1 10 mg/kg i.v. every other day): significant delay of tumour growth compared to saline control
- Rank order of tissue concentrations [2]: kidney>liver>bone marrow>spleen>heart>lung
- Mean Concentration SEQ ID NO: 1, Brain [2, 3]: BDL (below detectable limits (1 μg/g rat; 0.2 μg/g monkey))
- Mean Concentration SEQ ID NO: 1, Heart [2, 3]: BDL (below detectable limits (1 μg/g rat; 0.2 μg/g monkey))
- Mean Concentration SEQ ID NO: 1, Kidney [2, 3]: 176.2 µg/g
- Mean Concentration SEQ ID NO: 1, Liver [2, 3]: 137.8 µg/g
- Mean Concentration SEQ ID NO: 1, Lung [2, 3]: BDL (below detectable limits (1 μg/g rat; 0.2 μg/g monkey))
- Mean Concentration SEQ ID NO: 1, Lymph node [2, 3]: 2.2 µg/g
- Mean Concentration SEQ ID NO: 1, Spleen [2, 3]: 17.8 µg/g
- Mean Concentration total metabolites (n + 1 through n − 13), Brain [2, 3]: BDL (below detectable limits (1 μg/g rat; 0.2 μg/g monkey))
- Mean Concentration total metabolites (n + 1 through n − 13), Heart [2, 3]: BDL (below detectable limits (1 μg/g rat; 0.2 μg/g monkey))
- Mean Concentration total metabolites (n + 1 through n − 13), Kidney [2, 3]: 605.8 µg/g
- Mean Concentration total metabolites (n + 1 through n − 13), Liver [2, 3]: 425.7 µg/g
- Mean Concentration total metabolites (n + 1 through n − 13), Lung [2, 3]: BDL (below detectable limits (1 μg/g rat; 0.2 μg/g monkey))
- Mean Concentration total metabolites (n + 1 through n − 13), Lymph node [2, 3]: 21.0 µg/g
- Mean Concentration total metabolites (n + 1 through n − 13), Spleen [2, 3]: 71.4 µg/g
- Mean Concentration SEQ ID NO: 1, Brain [2, 4]: BDL (below detectable limits (1 μg/g rat; 0.2 μg/g monkey))
- Mean Concentration SEQ ID NO: 1, Heart [2, 4]: 1.9 µg/g
- Mean Concentration SEQ ID NO: 1, Kidney [2, 4]: 246.5 µg/g
- Mean Concentration SEQ ID NO: 1, Liver [2, 4]: 129.0 µg/g
- Mean Concentration SEQ ID NO: 1, Lung [2, 4]: 1.6 µg/g
- Mean Concentration SEQ ID NO: 1, Lymph node [2, 4]: 13.1 µg/g
- Mean Concentration SEQ ID NO: 1, Spleen [2, 4]: 82.1 µg/g
- Mean Concentration total metabolites (n + 1 through n − 13), Brain [2, 4]: BDL (below detectable limits (1 μg/g rat; 0.2 μg/g monkey))
- Mean Concentration total metabolites (n + 1 through n − 13), Heart [2, 4]: 4.6 µg/g
- Mean Concentration total metabolites (n + 1 through n − 13), Kidney [2, 4]: 886.1 µg/g
- Mean Concentration total metabolites (n + 1 through n − 13), Liver [2, 4]: 486.2 µg/g
- Mean Concentration total metabolites (n + 1 through n − 13), Lung [2, 4]: 4.2 µg/g
- Mean Concentration total metabolites (n + 1 through n − 13), Lymph node [2, 4]: 86.2 µg/g
- Mean Concentration total metabolites (n + 1 through n − 13), Spleen [2, 4]: 198.3 µg/g
- Mean Concentration SEQ ID NO: 1, Brain [2, 5]: BDL (below detectable limits (1 μg/g rat; 0.2 μg/g monkey))
- Mean Concentration SEQ ID NO: 1, Heart [2, 5]: 46.3 µg/g
- Mean Concentration SEQ ID NO: 1, Kidney [2, 5]: 1425.2 µg/g
- Mean Concentration SEQ ID NO: 1, Liver [2, 5]: 316.6 µg/g
- Mean Concentration SEQ ID NO: 1, Lung [2, 5]: 39.2 µg/g
- Mean Concentration SEQ ID NO: 1, Lymph node [2, 5]: 253.5 µg/g
- Mean Concentration SEQ ID NO: 1, Spleen [2, 5]: 260.6 µg/g
- Mean Concentration total metabolites (n + 1 through n − 13), Brain [2, 5]: BDL (below detectable limits (1 μg/g rat; 0.2 μg/g monkey))
- Mean Concentration total metabolites (n + 1 through n − 13), Heart [2, 5]: 113.8 µg/g
- Mean Concentration total metabolites (n + 1 through n − 13), Kidney [2, 5]: 3230.8 µg/g
- Mean Concentration total metabolites (n + 1 through n − 13), Liver [2, 5]: 806.6 µg/g
- Mean Concentration total metabolites (n + 1 through n − 13), Lung [2, 5]: 124.0 µg/g
- Mean Concentration total metabolites (n + 1 through n − 13), Lymph node [2, 5]: 801.2 µg/g
- Mean Concentration total metabolites (n + 1 through n − 13), Spleen [2, 5]: 1097 µg/g
- Mean Concentration SEQ ID NO: 1, Brain [2, 6]: BDL (below detectable limits (1 μg/g rat; 0.2 μg/g monkey))
- Mean Concentration SEQ ID NO: 1, Heart [2, 6]: 0.5 µg/g
- Mean Concentration SEQ ID NO: 1, Kidney [2, 6]: 1.6 µg/g
- Mean Concentration SEQ ID NO: 1, Liver [2, 6]: 0.9 µg/g
- Mean Concentration SEQ ID NO: 1, Lung [2, 6]: BDL (below detectable limits (1 μg/g rat; 0.2 μg/g monkey))
- Mean Concentration SEQ ID NO: 1, Lymph node [2, 6]: 59.9 µg/g
- Mean Concentration SEQ ID NO: 1, Spleen [2, 6]: 57.2 µg/g
- Mean Concentration total metabolites (n + 1 through n − 13), Brain [2, 6]: BDL (below detectable limits (1 μg/g rat; 0.2 μg/g monkey))
- Mean Concentration total metabolites (n + 1 through n − 13), Heart [2, 6]: 3.5 µg/g
- Mean Concentration total metabolites (n + 1 through n − 13), Kidney [2, 6]: 10.5 µg/g
- Mean Concentration total metabolites (n + 1 through n − 13), Liver [2, 6]: 2.3 µg/g
- Mean Concentration total metabolites (n + 1 through n − 13), Lung [2, 6]: BDL (below detectable limits (1 μg/g rat; 0.2 μg/g monkey))
- Mean Concentration total metabolites (n + 1 through n − 13), Lymph node [2, 6]: 371.3 µg/g
- Mean Concentration total metabolites (n + 1 through n − 13), Spleen [2, 6]: 367.8 µg/g
- Concentrations in the brain ([2]; lower limit for detection 0.2 μg/g): below the limits of detection
